Results taken from publication PMC10905675, “INX-315, a Selective CDK2 Inhibitor, Induces Cell Cycle Arrest and Senescence in Solid Tumors” (Cancer Discovery, 2023).

Columns and labels:
Experiment in all cases: PDX tumor growth
Assay type in all cases: in vivo, mice
ST4316B PDX = conditions: monotherapy; ribociclib 50 mg/kg per day
Protocol: (§1) PDX models were performed by Crown Biosciences (OV5398, GA0103, and GA0114) or XenoSTART (ST4316B). Tumor fragments from stock mice were harvested and implanted subcutaneously into the flank of NOD/SCID mice (OV5398, RRID:IMSR_JAX:001303), BALB/c nude mice (GA0103 and GA0114, RRID:IMSR_RJ:BALB-C-NUDE), or athymic nude mice (Crl:NU(NCr)-Foxn1nu, RRID:IMSR_CRL:490) (ST4316B). For CDX models, female athymic nude mice (Crl:NU(NCr)-Foxn1nu, RRID:IMSR_CRL:490) were inoculated with 1 × 10^7 50% Cultrex OVCAR3 cells in the flank. Experiments performed using MMTV-rtTA/tetO-HER2 mice were performed at the Peter MacCallum Cancer Centre. Tumor formation was induced and sustained in female mice with doxycycline as previously described ([33]). Randomization and treatment in all models began when median tumor volume reached a maximum of 300 mm^3.
(§2) Mice were treated via oral gavage. INX-315 was prepared weekly in 100% PEG400; abemaciclib was prepared as previously described ([33]) and ribociclib (Selleckchem, S7440) was prepared weekly in 0.5% methyl cellulose. To generate abemaciclib-resistant MMTV-rtTA/tetO-HER2 tumors, mice were treated continuously with abemaciclib at a dose of 75 mg/kg until tumors resumed growth as described in text. At this point and in all other MMTV-rtTA/tetO-HER2 mice experiments, mice were randomized into treatment groups and abemaciclib was administered to indicated groups at a dose of 50 mg/kg. In all MMTV-rtTA/tetO-HER2 mice experiments, INX-315 was administered at a dose of 50 mg/kg twice daily. For PDX model ST4316B, ribociclib was administered at 50 mg/kg per day.

[1] = test system: gastric adenocarcinoma PDX GA0103; conditions: oral gavage, 56 days
Protocol: as §1, §2

[2] = test system: gastric adenocarcinoma PDX GA0114; conditions: 100 mg/kg twice daily, 5-week experiment
Protocol: as §1, §2

With `NS(=O)(=O)c1ccc(Nc2ncc3cc4n(c3n2)C2(CCCCC2)C(=O)NN4)cc1` [INX-315] the tumor growth (ST4316B PDX) was “slowed tumor growth modestly”, the tumor growth ([1]; 100 mg/kg twice daily) was “tumor regression” and the tumor growth ([1]; all other treatment groups: 25, 50 mg/kg twice daily, 100 mg/kg once a day) was “significant growth inhibition”. The tumor growth [2] was “significantly inhibited”.
